Results taken from patent US10696677B2 (Research Triangle Institute, priority 2016, dated 2020).

Key:
[1] = system: MDCK; test: MDCK BBB Assay; format: in vitro ADME; settings: MDCK BBB assay

SMILES	melting point [°C]	% Permeable [1] [%]
CCCCC(=O)NC1CCN(c2ncnc3c2nc(-c2ccccc2Cl)n3-c2ccc(C(F)(F)F)nc2)CC1 [Compound 14, N-{1-[8-(2-Chlorophenyl)-9-[6-(trifluoromethyl)pyridin-3-yl]-9H-purin-6-yl]piperidin-4-yl}pentanamide]	192 to 193	–
O=C(NCC1CCCCC1)NC1CCN(c2ncnc3c2nc(-c2ccccc2Cl)n3-c2ccc(OC(F)F)nc2)CC1 [Compound 17, 3-{1-[8-(2-Chlorophenyl)-9-[6-(difluoromethoxy)pyridin-3-yl]-9H-purin-6-yl]piperidin-4-yl}-1-(cyclohexylmethyl)urea]	141 to 143	–
N#Cc1ccccc1N1CCN(c2ncnc3c2nc(-c2ccccc2Cl)n3-c2ccc(Cl)cc2)CC1 [Compound 74, 2-{4-[8-(2-Chlorophenyl)-9-(4-chlorophenyl)-9H-purin-6-yl]piperazin-1-yl}benzonitrile]	–	0
Cc1c(CN2CCN(c3ncnc4c3nc(-c3ccccc3Cl)n4-c3ccc(Cl)cc3)CC2)cnn1C [Compound 114, 8-(2-Chlorophenyl)-9-(4-chlorophenyl)-6-{4-[(1,5-dimethyl-1H-pyrazol-4-yl)methyl]piperazin-1-yl}-9H-purine]	138 to 139	–
Clc1ccc(CN2CCN(c3ncnc4c3nc(-c3ccccc3Cl)n4-c3ccc(Cl)cc3)CC2)cc1 [Compound 77, 6-[4-(4-Chlorobenzyl)piperazin-1-yl]-8-(2-chlorophenyl)-9-(4-chlorophenyl)-9H-purine]	–	~100
CC1(NC(=O)NC2CCC(F)(F)CC2)CCN(c2ncnc3c2nc(-c2ccccc2Cl)n3-c2ccc(Cl)cc2)CC1	175 to 177	–
FC(F)(F)c1ccccc1CN1CCN(c2ncnc3c2nc(-c2ccccc2Cl)n3-c2ccc(Cl)cc2)CC1 [Compound 111, 8-(2-Chlorophenyl)-9-(4-chlorophenyl)-6-{4-[2-(trifluoromethyl)benzyl]piperazin-1-yl}-9H-purine]	119 to 121	–
O=C(Nc1ccc(C(F)(F)F)nc1)NC1CCN(c2ncnc3c2nc(-c2ccccc2Cl)n3-c2ccc(Cl)cc2)CC1 [Compound 24, 3-{1-[8-(2-Chlorophenyl)-9-(4-chlorophenyl)-9H-purin-6-yl]piperidin-4-yl}-1-[6-(trifluoromethyl)pyridin-3-yl]urea]	140 to 142	–
Clc1ccc(-n2c(-c3ccccc3Cl)nc3c(N4CCN(c5ccccn5)CC4)ncnc32)cc1 [Compound 67, 8-(2-Chlorophenyl)-9-(4-chlorophenyl)-6-(4-pyridin-2-ylpiperazin-1-yl)-9H-purine]	–	0
N#Cc1ccccc1CN1CCN(c2ncnc3c2nc(-c2ccccc2Cl)n3-c2ccc(Cl)cc2)CC1 [Compound 75, 6-[4-(2-Cyanobenzyl)piperazin-1-yl]-8-(2-chlorophenyl)-9-(4-chlorophenyl)-9H-purine]	127 to 128	–
O=C(NCc1ccc(F)cc1)NC1CCN(c2ncnc3c2nc(-c2ccccc2Cl)n3-c2ccc(Cl)cc2)CC1 [Compound 128, 3-{1-[8-(2-Chlorophenyl)-9-(4-chlorophenyl)-9H-purin-6-yl]piperidin-4-yl}-1-[(4-fluorophenyl)methyl]urea]	184 to 185	–
O=S(=O)(NC1CCN(c2ncnc3c2nc(-c2ccccc2Cl)n3-c2ccc(OC(F)F)nc2)CC1)c1ccc(F)c(F)c1 [Compound 8, N-{1-[8-(2-Chlorophenyl)-9-[6-(difluoromethoxy)pyridin-3-yl]-9H-purin-6-yl]piperidin-4-yl}-3,4-difluorobenzene-1-sulfonamide]	212 to 213	–
COc1ccc(N2CCN(c3ncnc4c3nc(-c3ccccc3Cl)n4-c3ccc(Cl)cc3)CC2)cc1 [Compound 72, 8-(2-Chlorophenyl)-9-(4-chlorophenyl)-6-[4-(4-methoxyphenyl)piperazin-1-yl]-9H-purine]	–	0
O=C(Nc1ccccc1)NC1CCN(c2ncnc3c2nc(-c2ccccc2Cl)n3-c2ccc(Cl)cc2)CC1 [Compound 18, 3-{1-[8-(2-Chlorophenyl)-9-(4-chlorophenyl)-9H-purin-6-yl]piperidin-4-yl}-1-phenylurea]	–	0
